According to ChEMBL document CHEMBL5252573, “2,3-Dihydrosorbicillin and chrysopanol stimulate insulin secretion in INS-1 cells” (Bioorg Med Chem Lett, 2023):
Calls of active or inactive are those of the source. The calls are words filed in the database; no cut-off is given here.

Assays:
INS1 [1] = test: Cytotoxicity against rat INS1 cells assessed as reduction in cell viability at 2.5 to 10 uM incubated for 24 hrs by MTT assay; format: toxicity, cell-based; conditions: ins1, 24 h, dose 2.5-10 µM
[2] = Induction of glucose stimulated insulin secretion in rat INS1 cells assessed as increase in insulin level at 5 uM incubated for 1 hr; format: functional
[3] = Induction of glucose stimulated insulin secretion in rat INS1 cells assessed as increase in insulin level at 10 uM incubated for 1 hr; format: functional
INS1 [4] = test: Upregulation of PPARgamma protein expression in rat INS1 cells at 10 uM incubated for 24 hrs by Western blot analysis; format: functional, cell-based
INS1 [5] = test: Upregulation of PDX-1 protein expression in rat INS1 cells at 10 uM incubated for 24 hrs by Western blot analysis; format: functional, cell-based
INS1 [6] = test: Upregulation of IRS-2 protein expression in rat INS1 cells at 10 uM incubated for 24 hrs by Western blot analysis; format: functional, cell-based
INS1 [7] = test: Upregulation of PI3K protein expression in rat INS1 cells at 10 uM incubated for 24 hrs by Western blot analysis; format: functional, cell-based
INS1 [8] = test: Upregulation of AKT protein expression in rat INS1 cells at 10 uM incubated for 24 hrs by Western blot analysis; format: functional, cell-based
[9] = Induction of glucose stimulated insulin secretion in rat INS1 cells assessed as increase in insulin level at 2.5 uM incubated for 1 hr; format: functional
INS1 [10] = test: Upregulation of PPARgamma protein expression in rat INS1 cells at 5 uM incubated for 24 hrs by Western blot analysis; format: functional, cell-based
INS1 [11] = test: Upregulation of PDX-1 protein expression in rat INS1 cells at 5 uM incubated for 24 hrs by Western blot analysis; format: functional, cell-based
INS1 [12] = test: Upregulation of IRS-2 protein expression in rat INS1 cells at 5 uM incubated for 24 hrs by Western blot analysis; format: functional, cell-based
INS1 [13] = test: Upregulation of PI3K protein expression in rat INS1 cells at 5 uM incubated for 24 hrs by Western blot analysis; format: functional, cell-based
INS1 [14] = test: Upregulation of AKT protein expression in rat INS1 cells at 5 uM incubated for 24 hrs by Western blot analysis; format: functional, cell-based

Compound	Activity (INS1 [1])	Activity [2] [ng/mL]	Activity [3] [ng/mL]	further results
C/C=C/CCC(=O)c1cc(C)c(O)c(C)c1O	Non-Toxic	8.92	15.57	Activity (INS1 [4]): Active; Activity (INS1 [5]): Active; Activity (INS1 [6]): Active; Activity (INS1 [7]): Active; Activity (INS1 [8]): Active
COC(=O)[C@@]12Oc3ccc(-c4ccc5c(c4O)C(=O)C4=C(O)C[C@H](C)[C@@H](O)[C@]4(C(=O)OC)O5)c(O)c3C(=O)C1=C(O)C[C@H](C)[C@H]2O	Non-Toxic	–	–	–
C=CC(C)(C)[C@@]12C=C(O)C(=O)N3/C(=C/c4cnc[nH]4)C(=O)N[C@]31N(OC)c1ccccc12	Non-Toxic	–	–	–
CC(O)c1nc2ccccc2c(=O)[nH]1 (stereo unspecified)	Non-Toxic	–	–	–
Cc1cc(O)c2c(c1)C(=O)c1cc(O)cc(O)c1C2=O [EMODIN]	Non-Toxic	–	–	–
C=CC(C)(C)[C@@]12C=C(O)C(=O)N3/C(=C/c4c[nH]cn4)C(=O)N[C@]31N(O)c1ccccc12	Non-Toxic	12.05	12.86	–
Cc1cc(O)c2c(c1)C(=O)c1cccc(O)c1C2=O [CHRYSOPHANOL]	Non-Toxic	20.01	24.23	Activity [9]: 8.81 ng/mL; Activity (INS1 [10]): Active; Activity (INS1 [11]): Active; Activity (INS1 [12]): Active; Activity (INS1 [13]): Active; Activity (INS1 [14]): Active
Cc1ccc(S(=O)(=O)NC(=O)NN2CC3CCCC3C2)cc1 (stereo unspecified) [GLICLAZIDE]	–	9.69	20.85	–
